This series can be described thus: photoluminescence quantum yield (fraction); solvent given as SMILES.

The structures appear in SMILES notation.

For `Cc1ccc(C)cc1`, the photoluminescence quantum yield (in C1CCCCC1) is 0.39.

For the setting “in ClCCl”, `F[B-]1(F)OC(C#Cc2ccccc2)=CC(c2ccccc2)=[O+]1` registered a photoluminescence quantum yield of 0.43.

Turning to `O=C1NC(=O)/C(=C\c2ccccc2O)S1`, the photoluminescence quantum yield (in C1CCCCC1) came out at 0.02; the photoluminescence quantum yield (in C1COCCO1) came out at 0.031; the photoluminescence quantum yield (in CC#N) worked out at 0.025; the photoluminescence quantum yield (in CN(C)C=O) stood at 0.064; the photoluminescence quantum yield (in CO) was found to be 0.02; the photoluminescence quantum yield (in O) came out at 0.011. For the same molecule, the photoluminescence quantum yield came to 0.632 (in OCC(O)CO) and 0.115 (in OCCO).

`COc1ccc(/C=C(\c2ccccc2)c2nc3ccccc3s2)cc1` yielded a photoluminescence quantum yield (in CO) of 0.001.

Turning to `c1ccc(-c2nc3sc4cc5c(cc4c3s2)OCO5)cc1`, for the setting “in CS(C)=O”, the photoluminescence quantum yield was 0.62.

In the case of `COc1ccc(-n2nc(C#N)c(N3CCCC3)n2)cc1`, the photoluminescence quantum yield reads like this: (in CC#N) 0.936; (in CO) 0.98.

In the case of `COc1ccc(-c2ncccn2)cc1`, the photoluminescence quantum yield (in ClCCl) was 0.01.

The molecule `Cc1oc(C)c2c1C=C(C=O)CC(C=O)=C2` yielded a photoluminescence quantum yield (in ClC(Cl)Cl) of 0.

`Cc1ccc([C@@H]2C[C@](O)(c3ccccn3)C[C@](O)(c3ccccn3)[C@H]2C(=O)c2ccc(N(c3ccccc3)c3ccccc3)cc2)cc1`: the photoluminescence quantum yield amounted to 0.54 (in C1CCOC1); 0.02 (in CC#N); 0.01 (in CCO); 0.44 (in CCOC(C)=O); 0.03 (in CN(C)C=O); 0.27 (in ClCCl). Moreover, the photoluminescence quantum yield (in c1ccccc1) stood at 0.97.

Consider `COCCC1=Cc2nc1ccc1[nH]c(cc1CCOC)c1nc(ccc3[nH]c2cc3CCOC)C(CCOC)=C1`, for which, where the note is “in Cc1ccccc1”, the photoluminescence quantum yield came to 0.47.

On to `F[Si](c1ccccc1)(c1ccccc1)c1cc2ccccc2c2ccccc12`, for which the photoluminescence quantum yield (in C1CCOC1) was 0.11.

Take `Clc1nc(Nc2ccccc2)nc(Nc2ccc3c4cccc5cccc(c6cccc2c63)c54)n1`: the photoluminescence quantum yield was determined as 0.53 (in C1COCCO1), 0.45 (in CC#N), 0.49 (in CCCCOCCCC) and 0.43 (in CCOC(C)=O).

`CCCCN(CCCC)c1ccc(C#Cc2cc(C#Cc3ccc(N(CCCC)CCCC)cc3)c(C#Cc3c(F)c(F)c(F)c(F)c3F)cc2C#Cc2c(F)c(F)c(F)c(F)c2F)cc1` displayed a photoluminescence quantum yield (in ClCCl) of 0.3.

For `O=Cc1ccc(C=C(c2ccccc2)c2ccccc2)cc1`, the photoluminescence quantum yield (in C1CCOC1) is 0.039.

Turning to `Nc1cccnc1`, the photoluminescence quantum yield (in C1CCCCC1) was 0.02; the photoluminescence quantum yield (in CC#N) came to 0.05; the photoluminescence quantum yield (in CCO) was found to be 0.14; the photoluminescence quantum yield (in CCOCC) was 0.03; the photoluminescence quantum yield (in O) worked out at 0.16.

As for `c1ccc([Si]2(c3ccccc3)c3ccccc3-c3cc4c(cc32)-c2ccccc2[Si]4(c2ccccc2)c2ccccc2)cc1`, the photoluminescence quantum yield (in ClCCl) was found to be 0.56.

On to `CN1/C(=C/C=C(/C=C/c2sc3ccccc3[n+]2C)c2cccc(C(F)(F)F)c2)Sc2ccccc21`, for which the photoluminescence quantum yield (in CCO) is 0.12, the photoluminescence quantum yield (in CO) came to 0.06 and the photoluminescence quantum yield (in CS(C)=O) amounted to 0.24.

As for `Cc1ccccc1[B-]1(c2ccccc2C)n2nc(C(F)(F)F)cc2-c2c3ccccc3cc[n+]21`, the photoluminescence quantum yield reads like this: (in C1CCCCC1) 0.0285; (in Cc1ccccc1) 0.0259; (in ClCCl) 0.0197.

On to `Cc1cc(-c2ccc(-n3c4ccccc4c4ccccc43)cc2)nc(-c2ccc(-n3c4ccccc4c4ccccc43)cc2)n1`, for which the photoluminescence quantum yield is, setting by setting: (in C1CCOC1) 0.59; (in CN(C)C=O) 0.63; (in Cc1ccccc1) 0.64; (in ClC(Cl)Cl) 0.61.

`COc1c(-c2c(OC)c3cccc4ccc5oc(=O)cc2c5c43)c2cc(=O)oc3ccc4cccc1c4c32` yielded a photoluminescence quantum yield (in CC1CCCO1) of 0.35.

Regarding `COC(=O)C(NC(=O)OC(C)(C)C)c1ccc2oc(-c3cccc(Oc4ccccc4)c3)nc2c1` (stereo unspecified), the photoluminescence quantum yield is, setting by setting: (in CC1CCCCC1) 0.5; (in CC#N) 0.37; (in CO) 0.13.

Take `C(=C\c1ncnc2ccccc12)/c1ccc(-c2ccc(N(c3ccccc3)c3ccccc3)cc2)cc1`: the photoluminescence quantum yield (in ClCCl) stood at 0.23.

Take `CN(C)c1ccc(C2=Nc3scc[n+]3[B-](F)(F)O2)cc1`: the photoluminescence quantum yield reads like this: (in C1CCOC1) 0.99; (in CC#N) 0.1; (in Cc1ccccc1) 0.99; (in ClCCl) 0.86.

Turning to `COc1cc(OC)cc(C2=C3C(C)=C(I)C(/C=C/c4c[nH]c5ccccc45)=[N+]3[B-](F)(F)n3c(/C=C/c4c[nH]c5ccccc45)c(I)c(C)c32)c1`, the photoluminescence quantum yield runs as follows: (in C1CCOC1) 0.12; (in CS(C)=O) 0.1; (in ClCCl) 0.15.

On to `Cc1cc(-c2ccc(C(C)(C)C)cc2)c2nsnc2c1-c1ccc(N(c2ccccc2)c2ccccc2)cc1`, for which the photoluminescence quantum yield (in ClCCl) was 0.18.

Molecule `CN(C)c1ccc(C#Cc2cc(C#Cc3ccc(C(F)(F)F)cc3)c3ccc4c(C#Cc5ccc(C(F)(F)F)cc5)cc(C#Cc5ccc(C(F)(F)F)cc5)c5ccc2c3c54)cc1` came in with a photoluminescence quantum yield (in ClCCl) of 0.43.

As to `Cc1ccc(-n2c(-c3ccccc3O)nc(-c3ccccc3O)c2-c2ccccc2O)cc1`, the photoluminescence quantum yield (in C1CCOC1) was 0.55; the photoluminescence quantum yield (in CC(C)O) stood at 0.6; the photoluminescence quantum yield (in CO) worked out at 0.54; the photoluminescence quantum yield (in CS(C)=O) came out at 0.31; the photoluminescence quantum yield (in ClC(Cl)Cl) is 0.32; the photoluminescence quantum yield (in ClCCl) amounted to 0.37.

For the molecule `COc1ccc(-c2nc3ccccc3nc2/C=C/N2CCCC2)s1`, the photoluminescence quantum yield runs as follows: (in C1CCCCC1) 0.072; (in C1CCOC1) 0.155; (in CC#N) 0.21; (in CC(C)=O) 0.209; (in CCO) 0.031; (in CO) 0.009. The photoluminescence quantum yield runs as follows: (in CS(C)=O) 0.184; (in Cc1ccccc1) 0.095; (in ClCCl) 0.19.

As to `CCCCCCCCn1c(=O)c2cc3c(C#Cc4ccc(N(c5ccccc5)c5ccccc5)cc4)c4cc5c(=O)n(CCCCCCCC)c(=O)c5cc4c(C#Cc4ccc(N(c5ccccc5)c5ccccc5)cc4)c3cc2c1=O`, the photoluminescence quantum yield (in ClC(Cl)Cl) was 0.53.

Take `COc1ccc(-c2cn3ccc[n+]3[n-]2)cc1`: the photoluminescence quantum yield (in ClCCl) came out at 0.062.

Molecule `CCN(C)c1ccc(C2=C3C(C)=CC(/C=C/c4ccc(OCCCN=[N+]=[N-])cc4)=[N+]3[B-](F)(F)n3c(C)cc(C)c32)cc1` came in with a photoluminescence quantum yield (in CO) of 0.69.

Under “in C1CCOC1”, `c1cc2ccc1-c1ccc(cc1)-c1sc(c3c1OCCO3)-c1ccc(cc1)-c1ccc(cc1)-c1sc(c3c1OCCO3)-c1ccc(cc1)-c1ccc(cc1)-c1sc-2c2c1OCCO2` came in with a photoluminescence quantum yield of 0.34.

Regarding `COc1ccc(/C=C/C2=NC(=C\c3ccncc3)/C(=O)N2C)cc1`, the photoluminescence quantum yield is, setting by setting: (in C1COCCO1) 0.005; (in CC#N) 0.0026; (in CCO) 0.0027; (in CCOC(C)=O) 0.003; (in O) 0.0029.

`F[B-]1(F)n2c(Nc3cccc4cccnc34)ccc2C(c2ccccc2)=C2C=CC(Cl)=[N+]21` returned a photoluminescence quantum yield (in C1CCCCC1) of 0.17, a photoluminescence quantum yield (in CC#N) of 0.0024, a photoluminescence quantum yield (in Cc1ccccc1) of 0.04 and a photoluminescence quantum yield (in ClC(Cl)Cl) of 0.01.

`Cc1ccc(C)n1-c1ccc(C#N)cc1`: the photoluminescence quantum yield reads like this: (in C1CCOC1) 0.025; (in CCCCCC) 0.026; (in CCCCCl) 0.035; (in CCOCC) 0.019; (in ClCCl) 0.033.

Regarding `C#CCn1c2ccccc2c2cc(/C=C/C3=[N+]4C(=C(c5ccc(I)cc5)c5c(C)c(Cl)c(/C=C/c6ccc7c(c6)c6ccccc6n7CC#C)n5[B-]4(F)F)C(C)=C3Cl)ccc21`, the photoluminescence quantum yield is, setting by setting: (in CC#N) 0.5; (in CS(C)=O) 0.32; (in ClC(Cl)Cl) 0.55.

The molecule `CCC1=C(C2=C(C3=C(CC)S(=O)(=O)c4cc(-c5ccc(CO)cc5)ccc43)C(F)(F)C(F)(F)C2(F)F)c2ccc(-c3ccc(CO)cc3)cc2S1(=O)=O` yielded a photoluminescence quantum yield (in C1COCCO1) of 0.

For `CC(=O)O[B-]1(OC(C)=O)OC(/C=C/c2cccc3ccccc23)=CC(/C=C/c2cccc3ccccc23)=[O+]1`, the photoluminescence quantum yield is 0.75 (in C1CCOC1); 0.43 (in CC#N); 0.58 (in CC(C)=O); 0.38 (in CS(C)=O); 0.84 (in Cc1ccccc1); 0.73 (in ClC(Cl)Cl). Moreover, under “in ClCCl”, the photoluminescence quantum yield stood at 0.64.

In the case of `c1ccc(-n2c(-c3cccc4ccccc34)nc3c4ccccc4c4ccccc4c32)cc1`, for the setting “in Cc1ccccc1”, the photoluminescence quantum yield is 0.79.

Molecule `N#CC1=C(N)n2c(=O)c3ccccc3c(=O)n2C1c1cccs1` (stereo unspecified) yielded a photoluminescence quantum yield (in CS(C)=O) of 0.08.

The molecule `CCCCC(CC)COc1cc(OCC(CC)CCCC)c2c#cc3ccc4sc5ccc(c#cc6cc(c#cc7ccc8sc9ccc(c#cc1c2)cc9c8c7)c(C(CCCC)OCCC)cc6C(CCCC)OCCC)cc5c4c3` (stereo unspecified) displayed a photoluminescence quantum yield (in ClCCl) of 0.22.

Molecule `C(=C\c1ccncn1)/c1ccc(-c2ccc(N(c3ccccc3)c3ccccc3)cc2)cc1` yielded a photoluminescence quantum yield (in ClCCl) of 0.52.

As to `C1=C(c2ccccc2)C(c2ccccc2)=CC1c1ccccc1`, the photoluminescence quantum yield (in C1CCOC1) is 0.0137.

In the case of `[NH3+]C1(c2ccc3cc(O)ccc3c2)C2CC3CC(C2)CC1C3` (stereo unspecified), the photoluminescence quantum yield (in CC#N) is 0.3.
